For 12 compounds, IC50 and GI50 results are on record in patent US20240408169A1 (priority 2023, published 2024).

*1 amine or outer side, *2 acyl side, *3 side chain or, on linkers, in order; H or OH if unused. Where a SMILES comes first, the peptide text is derived from it. Bridges are numbered along the chain shown (N, C = ends). [ ]: non-standard residue; d: D form. The star is where a group is joined. X138 = CN([C@@H](Cc1cc(Cl)ccc1-c1ccc(S(=O)(=O)N2CCCC2)cc1)C(=O)[*:2])[*:1]; X134 = CN([C@@H](Cc1cc(Cl)ccc1-c1cnc2[nH]c(O)cc2c1)C(=O)[*:2])[*:1]; X195 = CC(=O)Nc1ccc(-c2ccc(Cl)cc2C[C@@H](C(=O)[*:2])N(C)[*:1])cn1; NMehhhLys(Me) = CN([C@@H](CCCCCCCN(C)[*:3])C(=O)[*:2])[*:1]; X176 = CN([C@@H](Cc1cc(F)ccc1-c1cccnc1)C(=O)[*:2])[*:1]; X204 = CN([C@@H](Cc1cc(F)ccc1-c1ccnnc1)C(=O)[*:2])[*:1]; NMe(hhhLys) = CN([C@@H](CCCCCCCN[*:3])C(=O)[*:2])[*:1]; NMe3Pal(2-OMe,5-Cl) = CN[C@@H](Cc1cc(Cl)cnc1OC)C(=O)O; cBuCO(3,3-F2-1-CF3) = O=C(C1(C(F)(F)F)CC(F)(F)C1)*; X25 = CCOc1ncc(Cl)cc1C[C@@H](C(=O)[*:2])N(C)[*:1]; X161 = Cc1ccc(F)cc1C[C@@H](C(=O)[*:2])N(C)[*:1]; Pro(trans-4-F) = O=C(O)[C@@H]1C[C@@H](F)CN1; Pivaloyl(3,3,3-F3) = CC(C)(C(=O)*)C(F)(F)F; Gly(cPr) = N[C@H](C(=O)O)C1CC1

In one assay the target is T1, CyclinA2/CDK2 (Homo sapiens, UniProt P20248).
T1 construct: purchased CRELUX Protein Services
The assay is described as follows: Fluorescence Polarization (FP) competitive binding assay, Cyclin A2/Cdk2.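 Also: plates equilibrated two hours at room temperature before polarization reading, IC50 fitted from eight-concentration compound titration curves.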 The settings on record: 8 nM Cyclin A2/Cdk2, 2 nM FAM probe; average of 2-3 independent experiments; read-out: Cyclin A FP IC50. A general note: Fluorescence polarisation rises when a labelled molecule tumbles more slowly, as on binding a larger partner.

In a further assay the target is T2, CyclinB1/CDK1 (Homo sapiens, UniProt P14635).
T2 construct: purchased Eurofins, discovery 14-450
The experiment in a line: Fluorescence Polarization (FP) competitive binding assay, Cyclin B1/Cdk1.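 Also: fluorescence polarization read after equilibration at room temperature, with IC50 taken from serially diluted dose-response curves.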 The settings on record: 10 nM Cyclin B1/Cdk1, 2 nM FAM probe; average of 2-3 independent experiments; read-out: Cyclin B FP IC50.

In the next assay the target is T3, CyclinE1/CDK2 (Homo sapiens, UniProt P24864).
T3 construct: purchased Eurofins, discovery 14-475
The experiment in a line: Fluorescence Polarization (FP) competitive binding assay, Cyclin E1/Cdk2.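 Also: readings taken after two-hour equilibration at room temperature in HEPES buffer with NaCl, DTT, NP-40 and BSA, IC50 fitted from eight-concentration serial dilution series.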 The settings on record: 10 nM Cyclin E1/Cdk2, 2 nM FAM probe; average of 2-3 independent experiments; read-out: Cyclin E FP IC50.

The test system of the next assay is NCI-H1048 cells. The experiment in a line: MTT proliferation assay, NCI-H1048.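 Also: Dose-response in 96-well plates over 8 or 10 concentration points, with exposure spanning 3-4 cell doublings.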 The following applies: 5 days compound exposure, 1:3 serial dilution starting at 10 μM. The class given is cell-based.
In another assay the test system is OVCAR3 cells. The assay is described as follows: MTT proliferation assay, OVCAR3.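 Also: compound given as an 8- or 10-point series, one day after plating, with exposure covering roughly 3-4 cell doublings.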 The class given is cell-based. The settings on record: 5 days compound exposure, 1:3 serial dilution starting at 10 μM. Background: Tetrazolium assays rely on reduction of a dye to a coloured formazan, in cell work by metabolically active cells.

Regarding `Cc1ccc(F)cc1C[C@H]1C(=O)NCCCCCCC[C@H](N(C)C(=O)[C@@H](NC(=O)[C@@H]2C[C@@H](F)CN2C(=O)C2(C(F)(F)F)CC(F)(F)C2)C2CC2)C(=O)N[C@@H](CC(C)C)C(=O)N1C` [Example 264] ({cBuCO(3,3-F2-1-CF3)}-[Pro(trans-4-F)][Gly(cPr)][NMe(hhhLys)]L[X161]; lactam 3-C), the IC50 (in general, the concentration that inhibits the measured activity by half) on CyclinA2/CDK2 is 90 nM; at CyclinB1/CDK1, 20 nM; at CyclinE1/CDK2, 290 nM. In addition, the GI50 (in general, the concentration at which growth is held to half of that of the control) in the assay with NCI-H1048 cells worked out at 40 nM; in the assay on OVCAR3 cells it was 30 nM.
Taken in the same sequence, the figures for `CC(=O)Nc1ccc(-c2ccc(Cl)cc2C[C@H]2C(=O)N(C)CCCCCCC[C@H](N(C)C(=O)[C@@H](NC(=O)[C@@H]3C[C@@H](F)CN3C(=O)C3(C(F)(F)F)CC(F)(F)C3)C3CC3)C(=O)N[C@@H](CC(C)C)C(=O)N2C)cn1` [Example 265] ({cBuCO(3,3-F2-1-CF3)}-[Pro(trans-4-F)][Gly(cPr)][NMehhhLys(Me)]L[X195]; lactam 3-C) were 20 nM, 20 nM, 640 nM, 10 nM and 20 nM.
Consider `CC(C)C[C@@H]1NC(=O)[C@@H](N(C)C(=O)[C@@H](NC(=O)[C@@H]2C[C@@H](F)CN2C(=O)C2(C(F)(F)F)CC(F)(F)C2)C2CC2)CCCCCCCN(C)C(=O)[C@H](Cc2cc(Cl)ccc2-c2ccc(S(=O)(=O)N3CCCC3)cc2)N(C)C1=O` [Example 266] ({cBuCO(3,3-F2-1-CF3)}-[Pro(trans-4-F)][Gly(cPr)][NMehhhLys(Me)]L[X138]; lactam 3-C), for which the IC50 at CyclinA2/CDK2 stood at 20 nM; at CyclinB1/CDK1, 20 nM; on CyclinE1/CDK2 it was 2220 nM. For the same compound, the GI50 in the assay on NCI-H1048 cells worked out at 30 nM; in the assay on OVCAR3 cells, 50 nM.
For the compound `CC(=O)N1CC=C(c2ccc(Cl)cc2C[C@H]2C(=O)NCCCC=CCC[C@H](N(C)C(=O)[C@@H](NC(=O)[C@@H]3C[C@@H](F)CN3C(=O)C3(C(F)(F)F)CC(F)(F)C3)C3CC3)C(=O)N[C@@H](CC(C)C)C(=O)N2C)CC1` [Example 267], the half-inhibitory concentration (IC50) is 20 nM on CyclinA2/CDK2, 20 nM on CyclinB1/CDK1 and 1950 nM at CyclinE1/CDK2. Moreover, the values for the GI50 in the assay on NCI-H1048 cells and in the assay with OVCAR3 cells were 50 nM and 40 nM, respectively.
In the case of `COc1ncc(Cl)cc1C[C@H]1C(=O)N(C)CCCCCCC[C@H](N(C)C(=O)[C@@H](NC(=O)[C@@H]2C[C@@H](F)CN2C(=O)C(C)(C)C(F)(F)F)C2CC2)C(=O)N[C@@H](CC(C)C)C(=O)N1C` [Example 268] ({Pivaloyl(3,3,3-F3)}-[Pro(trans-4-F)][Gly(cPr)][NMehhhLys(Me)]L[NMe3Pal(2-OMe,5-Cl)]; lactam 3-C), the IC50 came out at 60 nM on CyclinA2/CDK2, 20 nM at CyclinB1/CDK1 and 100 nM on CyclinE1/CDK2. Also, the GI50 with NCI-H1048 cells is 20 nM; with OVCAR3 cells, 10 nM.
Consider `CCOc1ncc(Cl)cc1C[C@H]1C(=O)N(C)CCCCCCC[C@H](N(C)C(=O)[C@@H](NC(=O)[C@@H]2C[C@@H](F)CN2C(=O)C(C)(C)C(F)(F)F)C2CC2)C(=O)N[C@@H](CC(C)C)C(=O)N1C` [Example 269] ({Pivaloyl(3,3,3-F3)}-[Pro(trans-4-F)][Gly(cPr)][NMehhhLys(Me)]L[X25]; lactam 3-C), for which the IC50 on CyclinA2/CDK2 is 60 nM; on CyclinB1/CDK1, 20 nM; on CyclinE1/CDK2, 100 nM. Further, the GI50 in the assay on NCI-H1048 cells and in the assay on OVCAR3 cells was 30 nM throughout.
On to `CC(C)C[C@@H]1NC(=O)[C@@H](N(C)C(=O)[C@@H](NC(=O)[C@@H]2C[C@@H](F)CN2C(=O)C2(C(F)(F)F)CC(F)(F)C2)C2CC2)CCCCCCCN(C)C(=O)[C@H](Cc2cc(F)ccc2-c2cccnc2)N(C)C1=O` [Example 271] ({cBuCO(3,3-F2-1-CF3)}-[Pro(trans-4-F)][Gly(cPr)][NMehhhLys(Me)]L[X176]; lactam 3-C), for which the values for the IC50 at CyclinA2/CDK2, at CyclinB1/CDK1 and at CyclinE1/CDK2 were 30 nM, 20 nM and 240 nM, respectively. Further, the GI50 in the assay on NCI-H1048 cells and with OVCAR3 cells was 10 nM in each case.
`CC(C)C[C@@H]1NC(=O)[C@@H](N(C)C(=O)[C@@H](NC(=O)[C@@H]2C[C@@H](F)CN2C(=O)C2(C(F)(F)F)CC(F)(F)C2)C2CC2)CCCCCCCN(C)C(=O)[C@H](Cc2cc(Cl)ccc2-c2cnc3[nH]c(O)cc3c2)N(C)C1=O` [Example 272] ({cBuCO(3,3-F2-1-CF3)}-[Pro(trans-4-F)][Gly(cPr)][NMehhhLys(Me)]L[X134]; lactam 3-C): the results for the IC50 on CyclinA2/CDK2, on CyclinB1/CDK1 and at CyclinE1/CDK2 were 50 nM, 20 nM and 1600 nM, respectively. Further, the GI50 in the assay with NCI-H1048 cells was found to be 90 nM; in the assay on OVCAR3 cells it was 430 nM.
For the compound `CC(C)C[C@@H]1NC(=O)[C@@H](N(C)C(=O)[C@@H](NC(=O)[C@@H]2C[C@@H](F)CN2C(=O)C2(C(F)(F)F)CC(F)(F)C2)C2CC2)CCC=CCCCNC(=O)[C@H](Cc2cc(Cl)ccc2-c2cnn(S(C)(=O)=O)c2)N(C)C1=O` [Example 273, (2S,4R)—N—((S)-2-(((3S,6S,9S)-3-(5-chloro-2-(1-(methylsulfonyl)-1H-pyrazol-4-yl)benzyl)-6-isobutyl-4-methyl-2,5,8-trioxo-1,4,7-triazacyclohexadec-12-en-9-yl)(methyl)amino)-1-cyclopropyl-2-oxoethyl)-1-(3,3-difluoro-1-(trifluoromethyl)cyclobutane-1-carbonyl)-4-fluoropyrrolidine-2-carboxamide], the IC50 came out at 50 nM on CyclinA2/CDK2, 20 nM at CyclinB1/CDK1 and 1940 nM at CyclinE1/CDK2. Further, the GI50 amounted to 30 nM in the assay on NCI-H1048 cells and 40 nM with OVCAR3 cells.
Turning to `COc1ncc(Cl)cc1C[C@H]1C(=O)NCCCCCCC[C@H](N(C)C(=O)[C@@H](NC(=O)[C@@H]2C[C@@H](F)CN2C(=O)C2(C(F)(F)F)CC(F)(F)C2)C2CC2)C(=O)N[C@@H](CC(C)C)C(=O)N1C` [Example 275] ({cBuCO(3,3-F2-1-CF3)}-[Pro(trans-4-F)][Gly(cPr)][NMe(hhhLys)]L[NMe3Pal(2-OMe,5-Cl)]; lactam 3-C), the IC50 was found to be 50 nM at CyclinA2/CDK2, 20 nM on CyclinB1/CDK1 and 230 nM at CyclinE1/CDK2. Besides, the GI50 in the assay on NCI-H1048 cells and in the assay with OVCAR3 cells was 10 nM in each case.
With `CC(C)C[C@@H]1NC(=O)[C@@H](N(C)C(=O)[C@@H](NC(=O)[C@@H]2C[C@@H](F)CN2C(=O)C2(C(F)(F)F)CC(F)(F)C2)C2CC2)C/C=C\CCCCN(C)C(=O)[C@H](Cc2cc(F)ccc2-c2cnn(S(C)(=O)=O)c2)N(C)C1=O` [Example 278], the IC50 at CyclinA2/CDK2 came out at 70 nM; on CyclinB1/CDK1 it was 20 nM; on CyclinE1/CDK2 it was 280 nM. The GI50 in the assay on NCI-H1048 cells and in the assay with OVCAR3 cells was 10 nM in each case.
For the compound `CC(C)C[C@@H]1NC(=O)[C@@H](N(C)C(=O)[C@@H](NC(=O)[C@@H]2C[C@@H](F)CN2C(=O)C2(C(F)(F)F)CC(F)(F)C2)C2CC2)CCCCCCCN(C)C(=O)[C@H](Cc2cc(F)ccc2-c2ccnnc2)N(C)C1=O` [Example 279] ({cBuCO(3,3-F2-1-CF3)}-[Pro(trans-4-F)][Gly(cPr)][NMehhhLys(Me)]L[X204]; lactam 3-C), the IC50 on CyclinA2/CDK2 is 100 nM; on CyclinB1/CDK1, 20 nM; at CyclinE1/CDK2, 1920 nM. Moreover, the GI50 was found to be 80 nM with NCI-H1048 cells and 90 nM in the assay with OVCAR3 cells.
